Experiments:
[1] = test system: PGE2 production in MDA-MB-231 cells; assay: Enzyme immunoassay of PGE2 in MDA-MB-231 cells (COX-2 inhibitory activity); format: cell-based, human; details: 25 μM, 24 h (FIG. 4)
Description: Enzyme Immunoassay of PGE2 in MDA-MB-231 Cells. MDA-MB-231 cells were obtained from ATCC (Rockville, Md.). Cell cultures were maintained in phenol red-free custom media (MEM, Earle's salts, 1.5× amino acids, 2× nonessential amino acids, L-glutamine, 1.5× vitamins, Gibco BRL) supplemented with 10% fetal bovine serum (FBS), 2 mM L-glutamine and 20 mg/L gentamycin. To study PGE2 synthesis in cell culture media, experiments were performed in […] Petri dishes. An aliquot of MDA-MB-231 cells (15×10^4 cells) were added to each dish and then incubated overnight to allow the cells to adhere to the dish. After that, cells were serum starved in defined media for 24 h. This step was followed by replacement of media with fresh media containing either vehicle (DMSO) or the indicated concentration of agents. After 24 h incubation at 37° C. the media were collected and the amount of PGE2 was determined by ELISA (Cayman Chemical) according to the protocol provided by the manufacturer. PGE2 concentration was normalized to total protein. Total proteins were extracted from adhered cells by 30 min treatment with 0.5 M NaOH at room temperature and shaking. Protein concentrations in these extracts were determined using a protein assay method (Bio-Rad Laboratories, Inc., Hercules, Calif.).

[2] = test system: aromatase activity in SK-BR-3 breast cancer cells; assay: Aromatase tritiated water-release assay in SK-BR-3 cell lines (first compound set); format: cell-based, human; details: SK-BR-3 cells, 24 h treatment; five concentrations, each in triplicate; read-out: IC50 (μM), suppression of aromatase activity in SK-BR-3 breast cancer cells
Description: Aromatase Tritiated Water-Release Assay in SK-BR-3 Cell Lines. SK-BR-3 cells were obtained from ATCC (Rockville, Md.). Cell cultures were maintained in phenol red-free custom media (MEM, Earle's salts, 1.5× amino acids, 2× nonessential amino acids, L-glutamine, 1.5× vitamins, Gibco BRL) supplemented with 10% fetal bovine serum (FBS), 2 mM L-glutamine, and 20 mg/L gentamycin. Measurement of aromatase enzyme activity was based on the tritium water release assay. 24 Cells in 100 mm Petri dish were treated with 0.1% DMSO (control), and inhibitors at the indicated concentrations. After 24 h, the media was changed and the cells were incubated with 100 nM [1â-3H]-androst-4-ene-3,17-dione ([…]) for 3 h. Subsequently, the reaction mixture was removed, and proteins were precipitated using 10% trichloroacetic acid at 42° C. for 20 min. After a brief centrifugation, the media was extracted three times with an equal amount of chloroform to extract unused substrate and further dextran-treated charcoal. After centrifugation, a 250-μL aliquot containing the product was counted in 5 mL of liquid scintillation mixture. Results were corrected for blanks and for the cell contents of culture flasks, and results were expressed as picomoles of 3H2O formed per hour incubation time per million live cells (pmol/h/10^6 cells). To determine the amount of cells in each flask, the cells were trypsinized and analyzed using the diphenylamine DNA assay adapted to a 96-well plate. (Natarajan N.; Shambaugh, G. E., 3rd; Elseth K. M.; Haines G. K.; Radosevich J. A. Adaptation of the diphenylamine (DPA) assay to a 96-well plate tissue culture format and comparison with the MTT assay. Biotechniques 1994, 17, 166-171; incorporated herein by reference). IC50 sigmoidal dose-response data were analyzed with Microsoft Excel and the Graphpad Prism (Version 3.0) program.

[3] = test system: aromatase activity in SK-BR-3 breast cancer cells; assay: Tritiated water-release assay in SK-BR-3 cells (additional compounds); format: cell-based, human
Description: Cell Culture. AR and SK-BR-3 cells were obtained from ATCC (Rockville, Md.). SK-BR-3 cells were maintained in phenol red-free custom media (MEM, Earle's salts, 1.5× amino acids, 2× non-essential amino acids, L-glutamine, 1.5× vitamins, Gibco BRL) supplemented with 10% fetal bovine serum (FBS), 2 mM L-glutamine and 20 mg/L gentamycin. […] Fetal bovine serum was heat inactivated for 30 min in a 56° C. water bath before use. Cell cultures were grown at 37° C., in a humidified atmosphere of 5% CO2 in a Hereaus CO2 incubator. For all experiments, cells were plated in 6 well plates and grown to subconfluency. Before treatment, the media was changed to a defined one containing DMEM/F12 media (Sigma) with 1.0 mg/mL human albumin (OSU Hospital Pharmacy), 5.0 mg/L human transferin and 5.0 mg/L bovine insulin.
(§1) Tritiated water-release assay in JAR and SK-BR-3 cell lines. Measurement of aromatase enzyme activity was based on the tritium water release assay. Cells in six well plates were treated with 0.1% DMSO (control), and inhibitors at the indicated concentrations. After 24 hours, the cells were incubated 3 hours (SK-BR-3 cells) or 1 hour (JAR cells) with fresh media along with 100 nM [1β-^3H]-androst-4-ene-3,17-dione (1 μCi). Subsequently, the reaction mixture was removed, and proteins were precipitated using 10% trichloroacetic acid at 42° C. for 20 min. After a brief centrifugation, the media was extracted three times with an equal amount of chloroform to remove remaining substrate and further treated with dextran-treated charcoal. After centrifugation, a 250-μl aliquot containing the product was counted in 5 ml of liquid scintillation mixture. Results were corrected for blanks and for the cell contents of culture flasks, and results were expressed as picomoles of ^3H2O formed per hour incubation time per million live cells (pmol/h/10^6 cells). To determine the amount of cells in each flask, the cells were lysed and analyzed using the diphenylamine DNA assay adapted to a 96-well plate. IC50 sigmoidal dose-response data were analyzed with Microsoft Excel and the Graphpad Prism (Version 3.0) program.
Diphenylamine DNA Assay To determine the amount of viable cells in each flask, the cells were lysed with 0.5N NaOH aqueous solution and analyzed using the diphenylamine DNA assay adapted to a 96-well plate. DNA standards (0-30 μg) were prepared using double-stranded DNA reconstituted in PBS and added in triplicates directly to the wells. A uniform cell suspension was prepared from the 6 well plate in 300 μl 0.5N NaOH aqueous solution, and 60 μl of the unknown samples were added in triplicates to separate wells. […] This solution (60 μl) was added to each well along with 100 μl of a 4% diphenylamine solution in glacial acetic acid. The plates were incubated at 37° C. for 24 hours. After centrifugation, 100 μl supernatant of each well was transferred to a new 96 well plate, and the OD595 was measured using a microplater reader. The DNA concentration was determined by extrapolation to the standard curve and the amount of cells/well was calculated using the equation: 1 cell≈7 pg DNA.

[4] = biological target: T1, aromatase activity in JAR choriocarcinoma placental cells (Homo sapiens, UniProt P11511); assay: Tritiated water-release assay in JAR cells; format: cell-based
T1 construct: JAR choriocarcinoma placental cells (which produce aromatase expression from promoter I.1 mediated by protein kinase C); host or cells: JAR
T1 sequence (P11511 1-503): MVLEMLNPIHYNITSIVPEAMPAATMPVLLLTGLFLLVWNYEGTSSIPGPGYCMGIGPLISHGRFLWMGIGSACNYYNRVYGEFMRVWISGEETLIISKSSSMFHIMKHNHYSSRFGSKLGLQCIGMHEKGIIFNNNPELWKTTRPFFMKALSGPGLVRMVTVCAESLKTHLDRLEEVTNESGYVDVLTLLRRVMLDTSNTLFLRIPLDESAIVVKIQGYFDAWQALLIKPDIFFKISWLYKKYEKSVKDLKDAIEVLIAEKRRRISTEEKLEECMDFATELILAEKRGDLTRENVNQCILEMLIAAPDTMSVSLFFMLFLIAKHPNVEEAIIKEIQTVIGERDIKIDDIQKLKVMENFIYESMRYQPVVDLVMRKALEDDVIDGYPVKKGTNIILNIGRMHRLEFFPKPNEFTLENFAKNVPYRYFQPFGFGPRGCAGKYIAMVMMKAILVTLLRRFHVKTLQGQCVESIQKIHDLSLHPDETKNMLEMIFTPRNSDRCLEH
Description: Cell Culture. AR and SK-BR-3 cells were obtained from ATCC (Rockville, Md.). SK-BR-3 cells were maintained in phenol red-free custom media (MEM, Earle's salts, 1.5× amino acids, 2× non-essential amino acids, L-glutamine, 1.5× vitamins, Gibco BRL) supplemented with 10% fetal bovine serum (FBS), 2 mM L-glutamine and 20 mg/L gentamycin. JAR cells were maintained in RPMI 1640 medium with 2 mM L-glutamine adjusted to contain 1.5 g/L sodium bicarbonate, 4.5 g/L glucose, 10 mM HEPES, and 1.0 mM sodium pyruvate, 90%; FBS, 10%. Fetal bovine serum was heat inactivated for 30 min in a 56° C. water bath before use. Cell cultures were grown at 37° C., in a humidified atmosphere of 5% CO2 in a Hereaus CO2 incubator. For all experiments, cells were plated in 6 well plates and grown to subconfluency. Before treatment, the media was changed to a defined one containing DMEM/F12 media (Sigma) with 1.0 mg/mL human albumin (OSU Hospital Pharmacy), 5.0 mg/L human transferin and 5.0 mg/L bovine insulin.
as §1
Diphenylamine DNA Assay To determine the amount of viable cells in each flask, the cells were lysed with 0.5N NaOH aqueous solution and analyzed using the diphenylamine DNA assay adapted to a 96-well plate. DNA standards (0-30 μg) were prepared using double-stranded DNA reconstituted in PBS and added in triplicates directly to the wells. A uniform cell suspension was prepared from the 6 well plate in 300 μl 0.5N NaOH aqueous solution, and 60 μl of the unknown samples were added in triplicates to separate wells. A solution of 0.16% acetaldehyde in water was prepared and mixed at a 1:5 ratio with perchloric acid (20% vol/vol). This solution (60 μl) was added to each well along with 100 μl of a 4% diphenylamine solution in glacial acetic acid. The plates were incubated at 37° C. for 24 hours. After centrifugation, 100 μl supernatant of each well was transferred to a new 96 well plate, and the OD595 was measured using a microplater reader. The DNA concentration was determined by extrapolation to the standard curve and the amount of cells/well was calculated using the equation: 1 cell≈7 pg DNA.

| Compound | melting point [°C] | IC50 [2] [µM] | IC50 ([3]; dose-response (FIG. 13), read-out: IC50 (μM), suppression of aromatase activity in SK-BR-3 breast cancer cells) [µM] | inhibition at 15 µM ([4]; 24 h, 15 μM (FIG. 11), read-out: decrease of aromatase activity in JAR cells) [%] | PGE2 production (COX-2 inhibitory activity) [1] | aromatase suppression activity in JAR cells (in words) ([4]; 15 μM) | decrease of aromatase activity in SK-BR-3 cells (in words) ([3]; 2.5 μM) |
| --- | --- | --- | --- | --- | --- | --- | --- |
| CN(c1ccc([N+](=O)[O-])cc1OC1CCCC1)S(C)(=O)=O [Compound 21, N-Methyl-N-(2-cyclopentyloxy-4-nitrophenyl)methanesulfonamide] | 102 to 104 | 0.44 | – | – | did not show any inhibitory activity | – | – |
| CC1CCCCC1Oc1cc([N+](=O)[O-])ccc1NS(C)(=O)=O (stereo not drawn) [Compound 11, N-(2-Methylcyclohexyloxy-4-nitrophenyl)methanesulfonamide] | – | 1.21 | – | – | did not show any COX-2 inhibitory activity | – | – |
| CC1CCCCC1Oc1cc([N+](=O)[O-])ccc1N(C)S(C)(=O)=O (stereo not drawn) [Compound 20, N-Methyl-N-(2-methylcyclohexyloxy-4-nitrophenyl)methanesulfonamide] | – | 0.96 | – | – | did not show any inhibitory activity | – | – |
| CS(=O)(=O)Nc1ccc([N+](=O)[O-])cc1OC1CCCC1 [Compound 12, N-(2-Cyclopentyloxy-4-nitrophenyl)methanesulfonamide] | 139 to 140 | 0.87 | – | – | significantly decrease in PGE2 production | – | – |

Second part, led by results:

| melting point [°C] | IC50 [2] [µM] | IC50 ([3]; dose-response (FIG. 13), read-out: IC50 (μM), suppression of aromatase activity in SK-BR-3 breast cancer cells) [µM] | inhibition at 15 µM ([4]; 24 h, 15 μM (FIG. 11), read-out: decrease of aromatase activity in JAR cells) [%] | Compound | PGE2 production (COX-2 inhibitory activity) [1] | aromatase suppression activity in JAR cells (in words) ([4]; 15 μM) | decrease of aromatase activity in SK-BR-3 cells (in words) ([3]; 2.5 μM) |
| --- | --- | --- | --- | --- | --- | --- | --- |
| – | – | 27 | – | CS(=O)(=O)Nc1ccc([N+](=O)[O-])cc1Oc1ccccc1 [Nimesulide, N-(2-phenoxy-4-nitrophenyl)-methanesulfonamide, reference compound] | – | – | – |
| 193 to 195 | – | – | < 50 | CS(=O)(=O)Nc1ccc([N+](=O)[O-])cc1OCc1cccc2ccccc12 [Compound 38b, N-[2-(α-naphthylmethoxy) 4-nitrophenyl]methanesulfonamide] | – | inhibited aromatase activity in both JAR cells and SK-BR-3 cells | inhibited aromatase activity in both JAR cells and SK-BR-3 cells |

Reference: patent US7741520B2, “Sulfonanilide analogs as selective aromatase modulators (SAMs)” (The Ohio State University Research Foundation, priority 2006, dated 2010)
